This passage reports IC50 results from US20250353864A1, “INDAZOLE CONTAINING MACROCYCLES AND THEIR USE” (BLOSSOMHILL THERAPEUTICS, INC., priority 2022, published 2025).

Format in all cases: biochemical
The target in one experiment is EGFR WT (Homo sapiens (Human), UniProt P00533). The experiment is described as follows: HotSpot radiometric kinase assay (Reaction Biology), EGFR WT. The following applies: 10 μM ATP. Put shortly:
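10 μM ATP (33P-labelled, final); 120 min RT; P81 filter capture, 0.75% phosphoric acid washes. Cpd preincubated ~20 min with enzyme/substrate, 20 mM Hepes pH 7.5, 10 mM MgCl2, 1% DMSO. IC50 by curve fit.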

A further experiment concerns the target EGFR (D770_N771insNPG) (Homo sapiens (Human), UniProt P00533, INS770NPG). The experiment is described as follows: HotSpot radiometric kinase assay, EGFR (D770_N771insNPG). The following applies: 10 μM ATP, read-out: EGFR (Δ770_N771insNPG) IC50. The method in brief:
(§1)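 Compounds were preincubated ~20 min with kinase/substrate in pH 7.5 Hepes buffer (MgCl2, EGTA, Brij35, BSA, Na3VO4, DTT, 1% DMSO), then ATP plus 33P-ATP was added to 10 μM final. After 120 min at room temperature, reactions were spotted on P81 filters and washed; IC50 values came from curve fits.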

For another experiment, the target named is EGFR Δ746-750 mutant (Homo sapiens (Human), UniProt P00533, DEL746-750). As to the kind of experiment: HotSpot radiometric kinase assay, EGFR Δ746-750 mutant. Conditions: 10 μM ATP. The method in brief:
as §1

The target in experiment [1] is EGFR Δ746-750/C797S mutant (Homo sapiens (Human), UniProt P00533, C797S/DEL746-750). As to the kind of experiment: HotSpot radiometric kinase assay, EGFR Δ746-750/C797S mutant. The following applies: 10 μM ATP. Put shortly: as §1
Chain of EGFR Δ746-750/C797S mutant (P00533 other isoform, or with tags, fused parts or gaps C797S/del 1-668/del 746-750 limits assumed): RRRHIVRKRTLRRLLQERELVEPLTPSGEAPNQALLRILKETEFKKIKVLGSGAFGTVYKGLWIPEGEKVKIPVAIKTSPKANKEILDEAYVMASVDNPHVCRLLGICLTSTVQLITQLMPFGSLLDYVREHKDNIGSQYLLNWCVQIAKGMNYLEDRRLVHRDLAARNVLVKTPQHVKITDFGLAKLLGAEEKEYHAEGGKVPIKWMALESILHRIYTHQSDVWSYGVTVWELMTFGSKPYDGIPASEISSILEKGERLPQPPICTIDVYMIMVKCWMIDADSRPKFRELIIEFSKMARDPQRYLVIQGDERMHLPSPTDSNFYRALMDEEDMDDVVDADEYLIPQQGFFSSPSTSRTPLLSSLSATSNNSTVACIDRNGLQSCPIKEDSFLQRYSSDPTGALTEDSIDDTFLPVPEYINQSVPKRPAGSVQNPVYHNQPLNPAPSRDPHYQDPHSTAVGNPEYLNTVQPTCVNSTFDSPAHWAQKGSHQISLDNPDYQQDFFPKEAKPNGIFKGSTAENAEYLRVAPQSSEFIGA
Another experiment addresses EGFR L858R mutant (Homo sapiens (Human), UniProt P00533, L858R). As to the kind of experiment: HotSpot radiometric kinase assay, EGFR L858R mutant. The following applies: 10 μM ATP. Put shortly:
as §1

The target in another experiment is EGFR L858R/T790M mutant (Homo sapiens (Human), UniProt P00533, L858R/T790M). The experiment is described as follows: HotSpot radiometric kinase assay, EGFR L858R/T790M mutant. The following applies: 10 μM ATP. On the procedure:
Biochemical Assays for Inhibition of Wild-Type and Mutant EGFRs
Briefly, specific kinase/substrate pairs along with required cofactors were prepared in reaction buffer; 20 mM Hepes pH 7.5, 10 mM […], 1 mM EGTA, 0.02% Brij35, 0.02 mg/ml BSA, 0.1 mM Na3VO4, 2 mM DTT, 1% DMSO. Compounds were delivered into the reaction, followed […] later by addition of a mixture of ATP (Sigma, St. Louis MO) and ^33P ATP (Perkin Elmer, Waltham MA) to a final concentration of 10 μM. Reactions were carried out at room temperature for 120 min, followed by spotting of the reactions onto P81 ion exchange filter paper (Whatman Inc., Piscataway, NJ). Unbound phosphate was removed by extensive washing of filters in 0.75% phosphoric acid. […] IC50 values and curve fits were obtained using Prism (GraphPad Software).

In experiment [2] the target is EGFR L858R/T790M/C797S mutant (Homo sapiens (Human), UniProt P00533, C797S/L858R/T790M). As to the kind of experiment: HotSpot radiometric kinase assay, EGFR L858R/T790M/C797S mutant. Conditions: 10 μM ATP. The method in brief: as §1

Chain of EGFR L858R/T790M mutant (P00533 25-1210 T790M/L858R): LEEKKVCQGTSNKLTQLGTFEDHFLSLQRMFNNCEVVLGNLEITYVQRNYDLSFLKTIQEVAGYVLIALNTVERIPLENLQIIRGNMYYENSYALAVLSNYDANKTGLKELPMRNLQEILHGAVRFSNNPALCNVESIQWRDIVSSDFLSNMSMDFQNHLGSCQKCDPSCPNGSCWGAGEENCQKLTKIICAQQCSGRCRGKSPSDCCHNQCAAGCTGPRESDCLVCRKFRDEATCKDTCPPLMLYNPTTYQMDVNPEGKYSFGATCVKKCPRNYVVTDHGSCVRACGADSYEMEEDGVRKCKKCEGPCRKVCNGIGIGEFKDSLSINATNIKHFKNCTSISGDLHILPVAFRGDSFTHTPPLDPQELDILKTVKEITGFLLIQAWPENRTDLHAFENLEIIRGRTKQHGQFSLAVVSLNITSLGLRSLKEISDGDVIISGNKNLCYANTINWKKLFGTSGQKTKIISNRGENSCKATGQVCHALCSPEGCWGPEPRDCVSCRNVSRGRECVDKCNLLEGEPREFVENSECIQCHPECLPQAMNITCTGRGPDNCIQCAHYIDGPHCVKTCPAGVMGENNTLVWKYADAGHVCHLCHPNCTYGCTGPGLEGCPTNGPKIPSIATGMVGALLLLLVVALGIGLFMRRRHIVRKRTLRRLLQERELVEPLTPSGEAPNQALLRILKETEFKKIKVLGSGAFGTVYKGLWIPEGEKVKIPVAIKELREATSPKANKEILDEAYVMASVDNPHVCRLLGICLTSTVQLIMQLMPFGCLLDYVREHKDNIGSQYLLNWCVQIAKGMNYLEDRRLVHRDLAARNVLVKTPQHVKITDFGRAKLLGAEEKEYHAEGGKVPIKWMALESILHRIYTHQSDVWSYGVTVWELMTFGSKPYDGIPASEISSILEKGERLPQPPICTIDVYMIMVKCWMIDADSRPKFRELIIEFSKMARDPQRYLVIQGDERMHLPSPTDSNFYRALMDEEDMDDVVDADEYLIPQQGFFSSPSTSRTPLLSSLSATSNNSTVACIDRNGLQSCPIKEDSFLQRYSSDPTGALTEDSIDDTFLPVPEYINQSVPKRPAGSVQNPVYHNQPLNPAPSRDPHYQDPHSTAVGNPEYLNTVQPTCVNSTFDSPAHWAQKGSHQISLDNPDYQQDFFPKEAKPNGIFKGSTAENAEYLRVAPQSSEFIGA
Chain of EGFR WT (P00533 25-1210): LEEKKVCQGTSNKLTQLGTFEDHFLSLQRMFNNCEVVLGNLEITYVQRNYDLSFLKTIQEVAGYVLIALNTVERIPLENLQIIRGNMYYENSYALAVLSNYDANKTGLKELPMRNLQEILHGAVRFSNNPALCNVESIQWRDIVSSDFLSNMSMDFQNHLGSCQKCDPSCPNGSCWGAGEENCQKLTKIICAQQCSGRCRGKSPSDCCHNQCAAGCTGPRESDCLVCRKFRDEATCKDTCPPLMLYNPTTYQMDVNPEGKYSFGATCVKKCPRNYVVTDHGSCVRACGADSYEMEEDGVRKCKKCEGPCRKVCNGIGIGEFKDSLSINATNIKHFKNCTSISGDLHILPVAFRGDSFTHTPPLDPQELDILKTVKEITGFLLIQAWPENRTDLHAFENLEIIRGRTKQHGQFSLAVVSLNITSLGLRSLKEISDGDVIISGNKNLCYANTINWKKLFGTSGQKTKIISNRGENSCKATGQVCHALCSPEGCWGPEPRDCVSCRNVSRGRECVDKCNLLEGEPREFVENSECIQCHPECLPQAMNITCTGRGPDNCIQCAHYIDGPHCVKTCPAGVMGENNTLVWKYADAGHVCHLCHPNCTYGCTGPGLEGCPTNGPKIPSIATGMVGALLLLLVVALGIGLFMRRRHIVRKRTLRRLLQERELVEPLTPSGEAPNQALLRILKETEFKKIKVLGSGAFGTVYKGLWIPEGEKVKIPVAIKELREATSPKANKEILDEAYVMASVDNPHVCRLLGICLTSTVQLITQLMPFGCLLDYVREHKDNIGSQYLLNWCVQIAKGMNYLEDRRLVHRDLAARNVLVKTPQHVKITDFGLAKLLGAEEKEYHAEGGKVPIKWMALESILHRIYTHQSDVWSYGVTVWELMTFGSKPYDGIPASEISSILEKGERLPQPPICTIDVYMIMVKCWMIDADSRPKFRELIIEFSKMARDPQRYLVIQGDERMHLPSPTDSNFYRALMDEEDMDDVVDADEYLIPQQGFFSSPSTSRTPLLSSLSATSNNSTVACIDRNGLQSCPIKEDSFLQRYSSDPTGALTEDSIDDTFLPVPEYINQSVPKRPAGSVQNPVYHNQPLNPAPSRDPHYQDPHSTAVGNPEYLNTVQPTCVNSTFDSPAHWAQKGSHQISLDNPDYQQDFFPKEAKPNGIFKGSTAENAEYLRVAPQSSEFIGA
Chain of EGFR Δ746-750 mutant (P00533 other isoform, or with tags, fused parts or gaps del 1-668/del 746-750 limits assumed): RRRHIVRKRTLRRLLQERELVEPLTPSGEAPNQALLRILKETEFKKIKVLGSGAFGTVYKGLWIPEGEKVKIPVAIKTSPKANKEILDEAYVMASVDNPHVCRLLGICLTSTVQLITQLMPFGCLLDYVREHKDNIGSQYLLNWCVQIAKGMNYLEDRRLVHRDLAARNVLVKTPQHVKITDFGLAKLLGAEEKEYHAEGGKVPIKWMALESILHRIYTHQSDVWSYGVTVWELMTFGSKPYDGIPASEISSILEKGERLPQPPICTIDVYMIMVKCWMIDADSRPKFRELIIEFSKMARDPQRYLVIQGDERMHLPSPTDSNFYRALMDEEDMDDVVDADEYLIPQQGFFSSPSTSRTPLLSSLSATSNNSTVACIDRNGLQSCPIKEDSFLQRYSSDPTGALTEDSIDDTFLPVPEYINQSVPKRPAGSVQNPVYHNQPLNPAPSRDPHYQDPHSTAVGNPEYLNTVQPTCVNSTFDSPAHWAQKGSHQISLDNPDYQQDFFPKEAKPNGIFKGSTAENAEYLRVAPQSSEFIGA
Chain of EGFR L858R mutant (P00533 25-1210 L858R): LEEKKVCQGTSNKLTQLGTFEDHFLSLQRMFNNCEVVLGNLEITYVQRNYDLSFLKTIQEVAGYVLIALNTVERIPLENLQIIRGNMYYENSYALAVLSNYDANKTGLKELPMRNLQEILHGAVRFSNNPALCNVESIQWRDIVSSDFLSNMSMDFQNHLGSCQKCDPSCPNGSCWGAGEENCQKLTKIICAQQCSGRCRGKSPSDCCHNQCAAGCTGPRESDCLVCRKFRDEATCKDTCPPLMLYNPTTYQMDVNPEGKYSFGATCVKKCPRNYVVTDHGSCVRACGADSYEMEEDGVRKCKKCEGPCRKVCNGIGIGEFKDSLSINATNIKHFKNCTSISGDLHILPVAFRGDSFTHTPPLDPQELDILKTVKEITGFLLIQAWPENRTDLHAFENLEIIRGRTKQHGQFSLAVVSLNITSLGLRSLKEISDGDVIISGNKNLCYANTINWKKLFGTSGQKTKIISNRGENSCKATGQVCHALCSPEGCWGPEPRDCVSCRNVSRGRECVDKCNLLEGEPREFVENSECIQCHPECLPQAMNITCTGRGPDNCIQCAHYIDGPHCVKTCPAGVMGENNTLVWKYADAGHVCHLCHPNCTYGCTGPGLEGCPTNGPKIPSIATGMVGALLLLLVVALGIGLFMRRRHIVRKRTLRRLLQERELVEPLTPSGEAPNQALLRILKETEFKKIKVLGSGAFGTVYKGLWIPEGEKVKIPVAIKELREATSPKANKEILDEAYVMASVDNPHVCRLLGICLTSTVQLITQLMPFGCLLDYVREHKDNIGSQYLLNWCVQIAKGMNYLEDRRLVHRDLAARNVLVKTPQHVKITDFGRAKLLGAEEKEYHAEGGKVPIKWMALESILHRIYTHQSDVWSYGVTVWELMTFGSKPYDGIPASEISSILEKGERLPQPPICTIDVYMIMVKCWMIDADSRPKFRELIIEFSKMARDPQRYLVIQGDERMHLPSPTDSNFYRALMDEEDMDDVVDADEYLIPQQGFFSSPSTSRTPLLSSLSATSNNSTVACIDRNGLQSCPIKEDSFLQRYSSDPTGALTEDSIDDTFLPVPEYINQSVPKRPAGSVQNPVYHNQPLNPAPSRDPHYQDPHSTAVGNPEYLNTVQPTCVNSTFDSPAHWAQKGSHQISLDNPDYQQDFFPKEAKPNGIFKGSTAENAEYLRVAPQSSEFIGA

Regarding `Cc1c2c(nn1CCO)OCCOC(C)c1c(cnn1C)-c1ccc3[nH]nc(c3c1)/C=C/2` (stereo not drawn) [Example 79, 2-[(17E)-8,9,16-trimethyl-8,9,11,12-tetrahydro-3,5-etheno[1,4]dioxacyclopentadecino[11,10-c:15,14-c′:6,7-c″ ]tripyrazol-15(2H)-yl]ethan-1-ol], the IC50 amounted to 1910 nM on EGFR WT; 951 nM at EGFR (D770_N771insNPG); 596 nM on EGFR Δ746-750 mutant; 284 nM in experiment [1]; 526 nM on EGFR L858R mutant; 57.1 nM at EGFR L858R/T790M mutant. The compound further gave an IC50 in experiment [2] of 67.7 nM.

For `Cc1c2c(nn1CCN1CCN(C)CC1)CN(C)C[C@H](C)Oc1c(cnn1C)-c1ccc3[nH]nc(c3c1)/C=C/2` [Example 90, (10S,17E)-8,10,12,16-tetramethyl-15-[2-(4-methylpiperazin-1-yl)ethyl]-2,10,11,12,13,15-hexahydro-8H-3,5-ethenotripyrazolo[3,4-f:3′,4′-j:4″,3″-n][1,4]oxazacyclopentadecine], the IC50 against EGFR WT came to 17.1 nM; on EGFR (D770_N771insNPG), 81.8 nM; on EGFR Δ746-750 mutant, 11.6 nM; in experiment [1], 4.65 nM; against EGFR L858R mutant it was 1.02 nM; against EGFR L858R/T790M mutant it was 0.06 nM. Also, the half-inhibitory concentration (IC50) in experiment [2] is 0.81 nM.

Consider `Cn1ncc2c1OCCCOc1nn3ccn(C)c(=O)c3c1/C=C/c1n[nH]c3ccc-2cc13` [Example 91, (20E)-8,18-dimethyl-2,8,11,12-tetrahydro-10H-3,5-ethenodipyrazolo[3″,4″:10′,11′;4′″,3′″:14′,15′][1,5]dioxacyclopentadecino[6′,7′:3,4]pyrazolo[1,5-a]pyrazin-19(18H)-one], for which the IC50 against EGFR WT is more than 1000 nM; on EGFR (D770_N771insNPG) it was more than 1000 nM; on EGFR Δ746-750 mutant, more than 1000 nM; in experiment [1] it was more than 1000 nM; on EGFR L858R mutant it was more than 1000 nM; against EGFR L858R/T790M mutant it was 400 nM. Besides, the IC50 in experiment [2] is more than 1000 nM.

Take `CN1CCN(Cc2ccc3c(c2)O[C@@H]2CCN(CCOc4c(cnn4C)-c4ccc5[nH]nc(c5c4)/C=C/3)C2=O)CC1` [Example 92, (10R,16E)-3-methyl-13-[(4-methylpiperazin-1-yl)methyl]-3,5,6,9,10,19-hexahydro-8H-20,22-etheno-7,10-methanodipyrazolo[3,4-i:4′,3′-m][1,8,5]benzodioxazacyclooctadecin-25-one]: the IC50 was 14.5 nM at EGFR WT; 6.34 nM at EGFR (D770_N771insNPG); 7.95 nM against EGFR Δ746-750 mutant; 6.65 nM in experiment [1]; 4.1 nM against EGFR L858R mutant; 0.41 nM at EGFR L858R/T790M mutant. The same compound showed an IC50 in experiment [2] of 3.26 nM.

Consider `Cc1c2c(nn1CCN1CCOCC1)CN(C)C[C@H](C)Oc1c(cnn1C)-c1ccc3[nH]nc(c3c1)/C=C/2` [Example 93, (10S,17E)-8,10,12,16-tetramethyl-15-[2-(morpholin-4-yl)ethyl]-2,10,11,12,13,15-hexahydro-8H-3,5-ethenotripyrazolo[3,4-f:3′,4′-j:4″,3″- n][1,4]oxazacyclopentadecine], for which the IC50 on EGFR WT was determined as 69.2 nM; at EGFR (D770_N771insNPG), 138 nM; at EGFR Δ746-750 mutant, 49.2 nM; in experiment [1], 16.7 nM; at EGFR L858R mutant, 11.4 nM; against EGFR L858R/T790M mutant, 0.86 nM. In addition, in experiment [2], the IC50 was found to be 5.02 nM.

With `CN(C)Cc1ccc2c(c1)O[C@@H]1CCN(CCOc3c(cnn3C)-c3ccc4[nH]nc(c4c3)/C=C/2)C1=O` [Example 94, (10R,16E)-13-[(dimethylamino)methyl]-3-methyl-3,5,6,9,10,19-hexahydro-8H-20,22-etheno-7,10-methanodipyrazolo[3,4-i:4′,3′-m][1,8,5]benzodioxazacyclooctadecin-25-one], the IC50 at EGFR WT amounted to 44.1 nM; on EGFR (D770_N771insNPG) it was 17.2 nM; on EGFR Δ746-750 mutant, 17.6 nM; in experiment [1], 14.1 nM; on EGFR L858R mutant, 9.99 nM; against EGFR L858R/T790M mutant it was 0.82 nM. The IC50 in experiment [2] stood at 5.75 nM.
